Experimental data: ChEMBL document CHEMBL4425090, “Antimalarial Oxoprotoberberine Alkaloids from the Leaves of Miliusa cuneata” (J Nat Prod, 2016)

Assays:
Plasmodium falciparum [1] = assay: Antiplasmodial activity against chloroquine/antifolate-sensitive Plasmodium falciparum TM4 infected in human RBC incubated for 18 to 20 hrs by microdilution radioisotope method; format: functional, organism-based
KB = assay: Cytotoxicity against human KB cells by sulforhodamine B assay; format: functional, cell-based
Vero = assay: Cytotoxicity against African green monkey Vero cells by sulforhodamine B assay; format: cell-based; settings: Chlorocebus sabaeus
Plasmodium falciparum [2] = assay: Antiplasmodial activity against multidrug-resistant Plasmodium falciparum K1 infected in human RBC incubated for 18 to 20 hrs by microdilution radioisotope method; format: functional, organism-based

Structure (SMILES)	IC50 (Plasmodium falciparum [1])	IC50 (KB)	IC50 (Vero)	IC50 (Plasmodium falciparum [2])
COc1cc(O)c2c(=O)c(OC)c(-c3ccc4c(c3)OCO4)oc2c1	> 47.8 µM	> 47.8 µM	> 47.8 µM	> 47.8 µM
O=C(/C=C/c1ccc(O)c(O)c1)NCCc1ccc(O)cc1	> 47.8 µM	> 47.8 µM	> 47.8 µM	23.8 µM
COc1cc(OC)c2c(=O)c(OC)c(-c3ccc(O)c(OC)c3)oc2c1	31.5 µM	> 47.8 µM	> 47.8 µM	27.9 µM
CC(C)=CCC/C(C)=C/[C@H]1OC(=O)C[C@]12C[C@H](O)C=CC2=O	11.1 µM	10.2 µM	13.5 µM	9.1 µM
COc1cc2c(c(OC)c1OC)CCN1C(=O)c3c(ccc(O)c3O)C[C@@H]21	> 47.8 µM	> 47.8 µM	> 47.8 µM	29.1 µM
COc1cc2c(c(O)c1OC)CCn1c-2cc2ccc(O)c(O)c2c1=O	19.3 µM	> 47.8 µM	> 47.8 µM	26.3 µM
COc1cc2c(c(OC)c1O)CCn1c-2cc2ccc(O)c(O)c2c1=O	41.4 µM	> 47.8 µM	> 47.8 µM	32.4 µM
COc1cc2c(c(OC)c1O)CCN1C(=O)c3c(ccc(O)c3O)C[C@@H]21	38.1 µM	> 47.8 µM	> 47.8 µM	26.1 µM
COc1cc2c(c(OC)c1OC)CCn1c-2cc2ccc(O)c(O)c2c1=O	25.6 µM	> 47.8 µM	> 47.8 µM	10.8 µM
COc1cc(-c2oc3cc(OC)c(OC)c(O)c3c(=O)c2OC)ccc1O [CHRYSOSPLENOL B]	39.5 µM	> 47.8 µM	> 47.8 µM	12.4 µM
CC1(C)N=C(N)N=C(N)N1c1ccc(Cl)cc1 [CYCLOGUANIL]	–	–	–	3.2 µM
COc1cccc2c1C(=O)c1c(O)c3c(c(O)c1C2=O)C[C@@](O)(C(=O)CO)C[C@@H]3O[C@H]1C[C@H](N)[C@H](O)[C@H](C)O1 [DOXORUBICIN]	–	1 µM	–	–
Cc1c2ccncc2c(C)c2c1[nH]c1ccccc12 [ELLIPTECINE]	–	–	0.4 µM	–
O=C(/C=C/c1ccc(O)cc1)NCCc1ccc(O)cc1 [N-P-COUMAROYL TYRAMINE]	> 47.8 µM	> 47.8 µM	> 47.8 µM	> 47.8 µM
COc1cc(/C=C/C(=O)NCCc2ccc(O)cc2)ccc1O [N-TRANS-FERULOYL TYRAMINE]	> 47.8 µM	> 47.8 µM	> 47.8 µM	54.9 µM
COc1cc(O)c2c(=O)c(OC)c(-c3ccc(O)c(OC)c3)oc2c1 [PACHYPODOL]	> 47.8 µM	> 47.8 µM	> 47.8 µM	> 47.8 µM
CCc1nc(N)nc(N)c1-c1ccc(Cl)cc1 [PYRIMETHAMINE]	–	–	–	31 µM
COc1cc([C@H]2OC[C@H]3[C@@H]2CO[C@@H]3c2cc(OC)c(O)c(OC)c2)cc(OC)c1O [SYRINGARESINOL]	> 47.8 µM	> 47.8 µM	> 47.8 µM	> 47.8 µM
